Data reported in ChEMBL document CHEMBL1146553, “Antiparasitic alkaloids from Psychotria klugii” (J Nat Prod, 2003).
Converted amounts (≈) assume the structure as drawn. The source made the active and inactive calls. The calls are words filed in the database; no cut-off is given here.

Legend:
Leishmania donovani = test: Antileishmanial activity against Leishmania donovani promastigotes after 72 hrs; assay type: functional, organism-based
Plasmodium falciparum [1] = test: Antimalarial activity against chloroquine-sensitive Plasmodium falciparum D6 by LDH reporter assay; assay type: functional, organism-based
Plasmodium falciparum [2] = test: Antimalarial activity against chloroquine-resistant Plasmodium falciparum W2 by LDH reporter assay; assay type: functional, organism-based
Vero [3] = test: Cytotoxicity against african green monkey Vero cells at 10 ug/ml; assay type: cell-based; conditions: chlorocebus sabaeus
in vitro [4] = conditions: monkey, Vero cells
Description: Selectivity index, ratio of IC50 for african green monkey (Cercopithecus aethiops) Vero cells to IC50 for chloroquine-sensitive Plasmodium falciparum D6

in vitro [5] = conditions: monkey, Vero cells; remark: listed apart in the source
Description: Selectivity index, ratio of IC50 for african green monkey (Cercopithecus aethiops) Vero cells to IC50 for chloroquine-resistant Plasmodium falciparum W2

Vero [6] = test: Cytotoxicity against african green monkey Vero cells; assay type: cell-based; conditions: chlorocebus sabaeus
SK-MEL = test: Cytotoxicity against human SK-MEL cells; assay type: functional, cell-based
KB = test: Cytotoxicity against human KB cells; assay type: functional, cell-based
BT-549 = test: Cytotoxicity against human BT549 cells; assay type: functional, cell-based
SK-OV-3 = test: Cytotoxicity against human SKOV3 cells; assay type: functional, cell-based
HL-60 = test: Cytotoxicity against human HL60 cells by XTT assay; assay type: functional, cell-based
[7] = target: T1, Integrin alpha-L (Homo sapiens) (UniProt P20701); test: Inhibition of LFA1:CD11a/CD18/ICAM1- mediated aggregation in PMA-induced human HL60 cells; assay type: cell-based; conditions: HL-60
T1 sequence (whole entry): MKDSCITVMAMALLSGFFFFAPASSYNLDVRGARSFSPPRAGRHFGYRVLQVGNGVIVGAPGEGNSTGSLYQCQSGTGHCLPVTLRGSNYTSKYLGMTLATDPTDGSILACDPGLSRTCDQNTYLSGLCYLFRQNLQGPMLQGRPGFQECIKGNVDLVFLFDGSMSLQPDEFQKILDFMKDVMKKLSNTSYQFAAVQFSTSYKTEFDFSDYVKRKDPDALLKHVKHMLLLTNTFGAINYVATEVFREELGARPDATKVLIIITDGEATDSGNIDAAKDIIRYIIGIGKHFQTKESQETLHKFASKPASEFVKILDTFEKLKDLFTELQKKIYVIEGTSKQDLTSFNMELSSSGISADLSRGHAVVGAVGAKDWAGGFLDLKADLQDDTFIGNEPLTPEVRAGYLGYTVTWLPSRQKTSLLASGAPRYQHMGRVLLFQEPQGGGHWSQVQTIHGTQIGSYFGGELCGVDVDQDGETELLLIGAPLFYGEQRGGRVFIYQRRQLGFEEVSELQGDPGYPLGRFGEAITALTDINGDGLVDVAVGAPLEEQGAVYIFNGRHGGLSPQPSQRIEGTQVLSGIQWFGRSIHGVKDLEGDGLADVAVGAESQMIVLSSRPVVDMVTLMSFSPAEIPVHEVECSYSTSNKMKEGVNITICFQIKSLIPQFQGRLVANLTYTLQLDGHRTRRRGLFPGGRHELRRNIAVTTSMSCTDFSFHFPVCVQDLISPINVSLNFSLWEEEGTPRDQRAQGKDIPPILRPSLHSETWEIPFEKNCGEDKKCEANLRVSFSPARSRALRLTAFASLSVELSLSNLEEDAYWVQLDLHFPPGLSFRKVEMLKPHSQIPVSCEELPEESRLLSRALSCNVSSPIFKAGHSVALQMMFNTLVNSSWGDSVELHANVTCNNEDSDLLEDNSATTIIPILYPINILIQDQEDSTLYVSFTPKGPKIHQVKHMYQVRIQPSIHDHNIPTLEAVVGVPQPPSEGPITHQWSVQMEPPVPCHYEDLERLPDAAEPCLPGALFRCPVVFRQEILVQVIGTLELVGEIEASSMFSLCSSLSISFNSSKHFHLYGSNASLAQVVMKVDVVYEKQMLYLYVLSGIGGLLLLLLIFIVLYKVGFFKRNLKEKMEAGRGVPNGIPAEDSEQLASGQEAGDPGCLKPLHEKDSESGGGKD

[8] = Specific index, ratio of IC50 for human HL60 cells to MIC for LFA1:CD11a/CD18/ICAM1- mediated aggregation in PMA-induced human HL60 cells; assay type: functional, HL-60
[9] = Specific index, ratio of IC50 for human HL60 cells to MIC for LFA1:CD11a/CD18/ICAM1-mediated human HL60 cell adhesion to human HeLa cells; assay type: functional
[10] = target: T1, Integrin alpha-L (Homo sapiens); test: Inhibition of LFA1:CD11a/CD18/ICAM1-mediated human HL60 cell adhesion to human HeLa cells expressing ICAM1 by fluorescence analysis; assay type: cell-based

| Structure (SMILES) | IC50 (Leishmania donovani) [µg/mL] | IC90 (Leishmania donovani) [µg/mL] | IC50 (Plasmodium falciparum [1]) [µg/mL] | IC50 (Plasmodium falciparum [2]) [µg/mL] | Activity (Vero [3]) | selectivity ratio (in vitro [4]) | selectivity ratio (in vitro [5]) | IC50 (Vero [6]) [µg/mL] | IC50 (SK-MEL) [µg/mL] | IC50 (KB) [µg/mL] | IC50 (BT-549) [µg/mL] | IC50 (SK-OV-3) [µg/mL] | IC50 (HL-60) [µg/mL] | MIC [7] [µg/mL] | Ratio [8] | Ratio [9] | Activity [10] |
| --- | --- | --- | --- | --- | --- | --- | --- | --- | --- | --- | --- | --- | --- | --- | --- | --- | --- |
| CC[C@H]1CN2CCc3cc(OC)c(OC)cc3[C@@H]2C[C@@H]1C[C@@H]1NCCc2cc(O)c(O)cc21 | 7.5 (≈ 16.6 µM) | 19 (≈ 42 µM) | 1.5 (≈ 3.31 µM) | 3.07 (≈ 6.78 µM) | Non-toxic | > 7 | > 3 | – | – | – | – | – | – | – | – | – | – |
| C[C@@H]1[C@H](O)[C@@H](C)/C=C/C=C/C=C/C=C/C=C/C=C/C=C/[C@H](O[C@@H]2O[C@H](C)[C@@H](O)[C@H](N)[C@@H]2O)C[C@@H]2O[C@](O)(C[C@@H](O)C[C@@H](O)[C@H](O)CC[C@@H](O)C[C@@H](O)CC(=O)O[C@H]1C)C[C@H](O)[C@H]2C(=O)O [AMPHOTERICIN B] | 0.17 (≈ 0.184 µM) | 0.28 (≈ 0.303 µM) | – | – | – | – | – | – | – | – | – | – | – | – | – | – | – |
| C[C@@H]1CC[C@H]2[C@@H](C)C(=O)O[C@@H]3O[C@@]4(C)CC[C@@H]1[C@]32OO4 [ARTEMISININ] | – | – | 0.0143 (≈ 0.0506 µM) | 0.0085 (≈ 0.0301 µM) | Non-toxic | > 699 | > 1180 | – | – | – | – | – | – | – | – | – | – |
| CC[C@H]1CN2CCc3cc(OC)c(OC)cc3[C@@H]2C[C@@H]1C[C@H]1NCCc2cc(O)c(OC)cc21 [CEPHAELINE] | 0.03 (≈ 0.0643 µM) | 1.5 (≈ 3.21 µM) | 0.038 (≈ 0.0814 µM) | 0.0277 (≈ 0.0594 µM) | – | 132 | 193 | 5.3 (≈ 11.4 µM) | 0.25 (≈ 0.536 µM) | 0.33 (≈ 0.707 µM) | 0.86 (≈ 1.84 µM) | 0.18 (≈ 0.386 µM) | 14.9 (≈ 31.9 µM) | 6.9 (≈ 14.8 µM) | 2.17 | – | – |
| CCN(CC)CCCC(C)Nc1ccnc2cc(Cl)ccc12 (centres undefined) [CHLOROQUINE] | – | – | – | – | Non-toxic | – | – | – | – | – | – | – | – | – | – | – | – |
| C=C1[C@@H](C)[C@H]2[C@H](Cc3ccccc3)NC(=O)[C@]23OC(=O)/C=C/[C@H](O)CCC[C@@H](C)C/C=C/[C@H]3[C@@H]1O [CYTOCHALASIN B] | – | – | – | – | – | – | – | – | – | – | – | – | > 30 | 2.5 (≈ 5.21 µM) | 13 | >5.5 | – |
| COc1cccc2c1C(=O)c1c(O)c3c(c(O)c1C2=O)C[C@@](O)(C(=O)CO)C[C@@H]3O[C@H]1C[C@H](N)[C@H](O)[C@H](C)O1 [DOXORUBICIN] | – | – | – | – | – | – | – | – | 1.57 (≈ 2.89 µM) | 1.7 (≈ 3.13 µM) | 1 (≈ 1.84 µM) | 1.53 (≈ 2.81 µM) | – | – | – | – | – |
| CC[C@H]1CN2CCc3cc(OC)c(OC)cc3[C@@H]2C[C@@H]1C[C@H]1NCCc2cc(OC)c(OC)cc21 [EMETINE] | 0.03 (≈ 0.0624 µM) | 0.13 (≈ 0.27 µM) | 0.0727 (≈ 0.151 µM) | 0.078 (≈ 0.162 µM) | – | 6 | 5 | 0.42 (≈ 0.874 µM) | – | – | – | – | 0.38 (≈ 0.791 µM) | 0.26 (≈ 0.541 µM) | 1.53 | – | – |
| CC[C@H]1CN2CCc3cc(OC)c(OC)cc3[C@@H]2C[C@@H]1C[C@@H]1NCCc2cc(O)c(OC)cc21 [ISOCEPHAELINE] | 0.45 (≈ 0.964 µM) | 0.98 (≈ 2.1 µM) | 0.187 (≈ 0.4 µM) | 0.29 (≈ 0.621 µM) | Non-toxic | > 54 | > 35 | – | > 10 | > 10 | > 10 | > 10 | – | – | – | – | – |
| CC[C@H]1CN2CCc3cc(O)c(OC)cc3[C@@H]2C[C@@H]1C[C@@]1(O)NCCc2cc(O)c(OC)cc21 [KLUGINE] | 0.4 (≈ 0.854 µM) | 2.5 (≈ 5.34 µM) | 0.0377 (≈ 0.0805 µM) | 0.0463 (≈ 0.0988 µM) | Non-toxic | > 265 | > 217 | – | > 10 | > 10 | > 10 | > 10 | 25 (≈ 53.4 µM) | 20.8 (≈ 44.4 µM) | 1.2 | – | inactive |
| N=C(N)c1ccc(OCCCCCOc2ccc(C(=N)N)cc2)cc1 [PENTAMIDINE] | – | 2.4 (≈ 7.05 µM) | – | – | – | – | – | – | – | – | – | – | – | – | – | – | – |
